Measured values reported in patent publication US20100150894A1, “COMPOSITION FOR PREVENTION OF CANCER” (Kaneka Corporation, priority 2005, published 2010).

Tested on: azoxymethane (AOM)-induced aberrant crypt foci (ACF) in colon
Experiment: Cancer prevention evaluation: AOM-induced colon aberrant crypt foci (ACF) in rats
Assay type: in vivo
Settings: male F344 rats, 4 weeks; for number of formation of ACF compared with the control group: AOM 15 mg/kg s.c. once a week over two weeks
Method: 6-week-old male F344 rats were divided into 3 groups (2 treated groups and 1 control group; each group consisted of 9 rats) and a colon carcinogen azoxymethane (AOM) was injected subcutaneously at the dose of 15 mg/kg body weight once a week over two weeks. From the day before injection of AOM, to the treated groups, coenzyme Q10 (Kaneka Q10, Kaneka Corporation) was fed together with feed at the concentration of 200 or 500 ppm, respectively. 4 weeks later, aberrant crypt foci (ACF), which is a precancerous change in colon cancer, was analyzed. After the rats were sacrificed, the colons (from the cecum to rectum) were enucleated and fixed using a 10% neutral buffered formalin. After the fixation, the colons were washed with a phosphate buffered-saline and stained with a 0.2% methylene blue-containing phosphate buffered-saline. Then, the number and size of ACF were measured using a microscope. […] As observed above, it was made clear that coenzyme Q10 has an effect for inhibiting the initial stage of AOM-induced formation of colon ACF, which is a precancerous change of colon cancer.

COC1=C(OC)C(=O)C(C/C=C(\C)CC/C=C(\C)CC/C=C(\C)CC/C=C(\C)CC/C=C(\C)CC/C=C(\C)CC/C=C(\C)CC/C=C(\C)CC/C=C(\C)CCC=C(C)C)=C(C)C1=O [coenzyme Q10]
number of formation of ACF compared with the control group (coenzyme Q10 200 ppm in feed): 76.6%
number of formation of ACF compared with the control group (coenzyme Q10 500 ppm in feed, p<0.01): 68.0%
size difference in ACF between control group and treated groups (AOM-induced, coenzyme Q10 200 or 500 ppm in feed): not recognized
